Results on 16 compounds are retold here after US12678418B2, “Compositions and methods for the treatment of threatened respiratory failure caused by coronavirus infection and disease” (ENCYT TECHNOLOGIES, INC., priority 2020, dated 2026).

“Also recorded” adds a separate entry of the source. Like-named read-outs stand apart in the source and are kept apart here. Ends that are not written are not given here.

Data set [1] concerns the target T1, Neu1 sialidase (Mus musculus, UniProt O35657).
T1 construct: […]; endogenous in cells; host or cells: BMC-2 macrophage cells
The note with it: cited from earlier work; for inhibition of the LPS-induced sialidase activity: live BMC-2 macrophage cells.

The target in data set [2] is T1, Neu1 sialidase. Format: cell-based. The note with it: for inhibition of lipopolysaccharide (LPS) induced sialidase activity: live BMC-2 macrophage cells, 1-2 mM, compared to LPS positive control; for inhibition of sialidase (Neu1) activity associated with TLR ligand treated live macrophage cells: cell surface of macrophage and dendritic cells. The source says: Central to this process is that Neu1 and not Neu2,-3 and -4 forms a complex with TLR-2,-3 and -4 on the cell surface of naïve macrophage cells. […] Endotoxin LPS binding to TLR4 induces Neu1 with subsequent activation of NFκB and the production of nitric oxide and proinflammatory IL-6 and TNFα cytokines in primary and macrophage cell lines.

In data set [3] the test system is Neu1 sialidase. Put plainly: Sialidase activity in live RAW-blue macrophage cells, 4-MUNANA substrate (Example 1). Format: cell-based, mouse. The note with it: for inhibition of sialidase activity associated with S-protein: FIG. 2B; for inhibition of sialidase activity associated with S-protein / inhibition of sialidase activity associated with S-protein (UK variant): inhibitor 200 μg/mL, 0.318 mM 4-MUNANA; for inhibition of sialidase activity associated with S-protein (UK variant): FIG. 2C.

In the next data set the target is MMP3 (Homo sapiens, UniProt P08254). The note with it: cited from earlier work.
MMP3, sequence (P08254 100-477, species assumed): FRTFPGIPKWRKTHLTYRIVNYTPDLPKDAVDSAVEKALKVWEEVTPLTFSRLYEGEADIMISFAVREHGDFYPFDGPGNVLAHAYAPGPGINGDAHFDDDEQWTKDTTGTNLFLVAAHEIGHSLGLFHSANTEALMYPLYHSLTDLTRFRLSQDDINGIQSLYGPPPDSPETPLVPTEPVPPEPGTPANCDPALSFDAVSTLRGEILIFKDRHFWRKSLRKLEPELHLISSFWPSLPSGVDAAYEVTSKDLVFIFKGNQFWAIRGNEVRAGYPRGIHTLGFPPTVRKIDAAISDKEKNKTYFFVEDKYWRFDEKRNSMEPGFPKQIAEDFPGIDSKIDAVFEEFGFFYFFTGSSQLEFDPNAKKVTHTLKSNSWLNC
In data set [4] the test system is NFκB activation, nitric oxide, IL-6 and TNFα in primary or macrophage cell lines. Put plainly: LPS/TLR ligand induced NFκB activation, nitric oxide and pro-inflammatory cytokines in macrophage cells. The note with it: macrophage and dendritic cells. Format: cell-based. From the text: Thus, there is evidence that the activation of Neu1 sialidase in complex with TLR-2,-3 and -4 receptors on the cell surface of macrophages is inhibited by the neuraminidase inhibitor OP. […] On the basis that Mas GPCR potentiates receptor biased-induced TLR transactivation via NMBR-Neu1-MMP9 crosstalk on the cell surface alveolar macrophages, then OP will inhibit the pro-inflammatory responses in the lungs and reduce the inflammatory process.

For data set [5] the test system is unchanged. The note with it: cited from earlier work.
The subject of data set [6] is SEAP gene inducible by NF-kB and AP-1 in RAW-Blue cells. Put plainly: SEAP reporter assay in RAW-Blue cells (Example 2). The data set is classed as cell-based, mouse. Particulars: for expression of SEAP (reflective of NF-kB expression): FIG. 3A-3D, various concentrations. As for the experimental part: RAW-Blue™ cells (mouse macrophage reporter cell line, Invivogen, San Diego CA) derived from RAW 264.7 macrophages were grown in a culture medium under the selection of Zeocin™. The cells stably express a secreted embryonic alkaline phosphatase (SEAP) gene inducible by NF-kB and AP-1 transcription factors. Upon stimulation, RAW-Blue™ cells activate NF-kB and AP-1 leading to the secretion of SEAP, which is detectable and measurable using QUANTI-Blue™, a SEAP detection medium (Invivogen). Supernatants (20 uL) after 24 hr reaction from treated RawBlue cells is added to QuantiBlue reagent (180 uL), and the readout of color reaction was done after 6 hrs. QUANTI-Blue™ is a colorimetric enzyme assay developed to determine the activity of any alkaline phosphatase present in a biological sample (supernatants) and was prepared according to manufacturer's instructions. RAW-Blue™ cells are resistant to Zeocin™ and G418.
A cell suspension of 550,000 RAW-blue cells/mL in fresh growth medium was prepared, and 180 μL of cell suspension (~100,000 cells) was added to each well of a Falcon flat-bottom 96-well plate (Becton Dickinson). After different incubation times, indicated dosages of LPS, bradykinin, angiotensin 1-7, neuropeptide FF, and S-protein alone or together with indicated dose-dependent OP were added to each well. The plates were incubated at 37° C. in a 5% CO2 incubator for 18-24 h. 180 μL of QUANTI-Blue™ solution was added to each well of a flat-bottom 96-well plate, followed by 20 μL of supernatant from stimulated RAW-blue cells. The plate was incubated for 30 min to 3 h at 37° C. and the SEAP levels were determined using a spectrophotometer at 620-655 nm. Each experiment was performed in triplicate.
Background: In a reporter assay the amount or activity of a reporter protein is the signal.

For data set [7] the following is noted: cited from earlier work.
The target in another data set is MMP9 (Homo sapiens, UniProt P14780). The note with it: cited from earlier work.
MMP9, sequence (P14780 94-707, species assumed): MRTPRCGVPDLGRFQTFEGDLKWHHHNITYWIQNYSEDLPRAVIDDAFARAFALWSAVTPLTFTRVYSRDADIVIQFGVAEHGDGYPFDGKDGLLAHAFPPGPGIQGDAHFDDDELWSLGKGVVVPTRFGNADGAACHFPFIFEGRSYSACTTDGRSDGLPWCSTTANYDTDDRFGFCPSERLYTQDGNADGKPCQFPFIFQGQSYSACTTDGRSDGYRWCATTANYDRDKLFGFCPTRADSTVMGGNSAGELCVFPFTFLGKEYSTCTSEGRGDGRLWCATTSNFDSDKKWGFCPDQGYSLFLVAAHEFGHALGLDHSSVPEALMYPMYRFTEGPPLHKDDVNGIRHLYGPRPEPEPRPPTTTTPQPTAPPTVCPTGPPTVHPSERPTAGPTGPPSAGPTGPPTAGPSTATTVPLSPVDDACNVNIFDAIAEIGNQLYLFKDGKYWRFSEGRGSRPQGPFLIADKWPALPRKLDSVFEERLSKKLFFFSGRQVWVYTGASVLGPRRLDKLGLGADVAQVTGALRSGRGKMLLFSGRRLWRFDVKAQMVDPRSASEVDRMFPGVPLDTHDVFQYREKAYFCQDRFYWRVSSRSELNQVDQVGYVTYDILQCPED
In a further data set the target is T2, MMP1 (Homo sapiens, UniProt P03956).
T2 sequence (P03956 100-469): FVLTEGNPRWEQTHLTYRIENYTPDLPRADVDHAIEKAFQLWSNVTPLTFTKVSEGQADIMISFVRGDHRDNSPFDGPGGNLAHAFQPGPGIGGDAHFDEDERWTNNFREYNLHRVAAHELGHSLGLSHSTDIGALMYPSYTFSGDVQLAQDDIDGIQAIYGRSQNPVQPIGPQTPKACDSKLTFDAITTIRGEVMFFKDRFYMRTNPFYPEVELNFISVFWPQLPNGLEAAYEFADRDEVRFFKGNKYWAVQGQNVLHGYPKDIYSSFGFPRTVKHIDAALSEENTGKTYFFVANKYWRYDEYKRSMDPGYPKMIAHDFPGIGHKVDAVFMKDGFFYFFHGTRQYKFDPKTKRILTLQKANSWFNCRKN
Particulars: read-out: IC50 for MMP1; cited from earlier work.

The next data set deals with MMP7 (Homo sapiens, UniProt P09237). The note with it: read-out: IC50 for MMP7; cited from earlier work.
MMP7, sequence (P09237 95-267, species assumed): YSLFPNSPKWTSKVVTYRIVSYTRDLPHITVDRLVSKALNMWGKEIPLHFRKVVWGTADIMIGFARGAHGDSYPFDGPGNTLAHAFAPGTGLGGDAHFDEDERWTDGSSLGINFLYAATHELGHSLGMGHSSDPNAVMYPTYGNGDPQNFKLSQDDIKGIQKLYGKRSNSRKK
For another data set, the target named is T3, neuraminidase 1 (Homo sapiens, UniProt Q99519).
T3 construct: endogenous in cells; host or cells: PANC-1
The data set can be described thus: Neu-1 activity in live PANC-1 cells stimulated with EGF. Format: cell-based. Particulars: FIG. 5; aspirin 1.6 mM-6.4 mM, 30 ng/mL EGF, 0.318 mM 4-MUNANA. As to the method: Live PANC-1 cells were pre-treated with increasing concentrations of aspirin (1.6 mM-6.4 mM), followed by stimulation with 30 ng/mL of EGF to initiate Neu-1 activity. 0.318 mM 4-MUNANA substrate was added to quantify Neu-1 activity.

Data set [8] addresses mammalian neuraminidase 1 (Homo sapiens, UniProt Q99519). The data set can be described thus: Aspirin with OP on mammalian neuraminidase 1.
The next data set concerns Neu1. The note with it: live macrophage cell lines and primary bone marrow macrophage cells from wild-type mice, not from Neu1-deficient mice; cited from earlier work.
Data set [9] has as its target LPS induced sialidase activity in live BMA macrophage cells (Mus musculus, UniProt O35657). The note with it: clopidogrel bisulfate 280 μM and 500 μM for 2 min, 5 μg/ml LPS, 400 μM OP.
Another data set deals with carboxylesterase (Homo sapiens, UniProt P23141). The note with it: previously determined; cited from earlier work.
carboxylesterase, sequence (P23141 18-567): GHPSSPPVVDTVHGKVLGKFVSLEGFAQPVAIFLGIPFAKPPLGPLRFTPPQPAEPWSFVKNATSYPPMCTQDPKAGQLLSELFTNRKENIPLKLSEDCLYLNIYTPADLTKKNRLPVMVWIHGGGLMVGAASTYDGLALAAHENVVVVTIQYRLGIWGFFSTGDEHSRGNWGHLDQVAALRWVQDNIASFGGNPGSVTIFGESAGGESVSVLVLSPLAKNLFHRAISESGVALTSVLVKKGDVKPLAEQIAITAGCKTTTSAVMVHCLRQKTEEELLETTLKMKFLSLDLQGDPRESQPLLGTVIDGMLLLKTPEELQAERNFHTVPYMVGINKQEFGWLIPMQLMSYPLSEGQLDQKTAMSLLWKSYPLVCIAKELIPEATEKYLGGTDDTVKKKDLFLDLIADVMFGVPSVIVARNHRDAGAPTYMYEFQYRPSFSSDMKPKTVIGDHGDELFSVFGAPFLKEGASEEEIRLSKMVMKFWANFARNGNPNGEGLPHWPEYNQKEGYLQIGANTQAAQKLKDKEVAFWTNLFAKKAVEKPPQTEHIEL
The test system of data set [10] is Neu1 sialidase. Particulars: 2 mM, lysates from mature dendritic cells; cited from earlier work.
For the next data set, the target named is T4, human Neu3 sialidase (Homo sapiens, UniProt Q9UQ49).
T4 sequence (Q9UQ49 1-428): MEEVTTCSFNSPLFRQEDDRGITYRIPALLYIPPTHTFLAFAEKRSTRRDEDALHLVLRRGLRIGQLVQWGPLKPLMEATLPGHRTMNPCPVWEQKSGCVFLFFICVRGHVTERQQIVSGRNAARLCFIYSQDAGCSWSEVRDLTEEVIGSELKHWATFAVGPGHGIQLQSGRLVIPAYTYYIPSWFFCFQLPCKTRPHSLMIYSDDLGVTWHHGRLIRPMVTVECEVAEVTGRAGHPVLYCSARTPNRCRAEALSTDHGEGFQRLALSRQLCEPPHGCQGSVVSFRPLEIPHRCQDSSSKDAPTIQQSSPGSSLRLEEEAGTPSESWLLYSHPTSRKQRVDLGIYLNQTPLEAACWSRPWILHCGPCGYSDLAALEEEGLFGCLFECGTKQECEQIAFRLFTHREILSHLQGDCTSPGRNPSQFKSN
The note with it: micromolar range; cited from earlier work.

A further data set has as its system Neu3 sialidase. The note with it: 2 mM, lysates from mature dendritic cells; cited from earlier work.

With `CCC(CC)[C@H](NC(C)=O)[C@@H]1C[C@@H](C(=O)O)C[C@H]1N=C(N)N` [BCX1827], the “inhibition of the LPS-induced sialidase activity” value at Neu1 sialidase [1] is given as “limited significant inhibition”. Besides, at Neu1 sialidase [2], the “inhibition of lipopolysaccharide (LPS) induced sialidase activity” value (“inhibition of lipopolysaccharide” for short) is recorded as “limited effect”.
For `N[C@@H](CS)C(=O)N1CCn2cc(-c3ccccc3)nc2[C@@H]1CC1CCCCC1` [BIM-46174], in the data set with Neu1 sialidase [3], the “inhibition of sialidase activity triggered by recombinant S protein and LPS” value is given as “inhibited”; the “inhibition of sialidase activity associated with S-protein” value is recorded as “inhibited”; the “inhibition of sialidase activity associated with S-protein (UK variant)” value was “inhibited”.
Turning to `CC(=O)N[C@H]1[C@H]([C@H](O)[C@H](O)CO)OC(C(=O)O)=C[C@@H]1O` [DANA, 2-deoxy-2,3-dehydro-N-acetylneuraminic acid], the “inhibition of the LPS-induced sialidase activity” value at Neu1 sialidase [1] is given as “limited significant inhibition”. The “inhibition of lipopolysaccharide” value at Neu1 sialidase [2] is on record as “limited effect”.
Turning to `CNC(=O)[C@H](Cc1c[nH]c2ccccc12)NC(=O)[C@@H](CC(=O)NO)CC(C)C` [Galardin], on MMP3, the IC50 was 27 nM.
For the compound `CCOC(=O)C1=C[C@@H](OC(CC)CC)[C@H](NC(C)=O)[C@@H](N)C1.O=P(O)(O)O` [OP, (3R,4R,5S)-4-acetylamino-5-amino-3-(1-ethylpropoxy)1-cyclohexene-1-carboxylic acid, ethyl ester, phosphate (1:1)], at Neu1 sialidase [1] (BMC-2 cells pretreated with anti-carboxylesterase agent clopidogrel), the “OP blockage of LPS-induced Neu1 sialidase activity after clopidogrel pretreatment” value is “not affected”. For the same compound, the “inhibition of the LPS-induced sialidase activity” value on Neu1 sialidase [1] is reported as “completely blocks”. In addition, the “block of TLR ligand induced NFkB activation, nitric oxide (NO) production and pro-inflammatory cytokines” value in data set [4] is given as “blocks”. Besides, the “inhibition of sialidase (Neu1) activity associated with TLR ligand treated live macrophage cells” value at Neu1 sialidase [2] is “most potent; also recorded: potent inhibitor”. The “inhibition of sialidase (Neu1) activity associated with TLR ligand treated live macrophage cells” value against Neu1 sialidase [2] (listed as oseltamivir phosphate) is given as “specifically inhibits”. In [5], the “inhibition of endotoxin LPS induced NFκB activation and production of nitric oxide and pro-inflammatory IL-6 and TNFα cytokines” value is recorded as “significantly inhibited”. Further, in the data set on Neu1 sialidase [3], the “inhibition of sialidase activity triggered by recombinant S protein and LPS” value is on record as “blocked”; the “inhibition of sialidase activity associated with S-protein” value is given as “inhibited”; the “inhibition of sialidase activity associated with S-protein (UK variant)” value was “inhibited”. In addition, the “inhibition of S-protein triggered activity by SEAP reporter assay” value in data set [6] (FIG. 4C, S-protein 10 ug/mL, OP at indicated concentrations) is reported as “significantly decreased; also recorded: inhibited sialidase activity in a dose dependent manner”. Further, the solubility in water entry in [7] is “soluble in water”.
As to `C1CNCCN1` [PIPZ], the IC50 on MMP9 was 2.7 nM; at MMP1 it was 24 nM; at MMP7, 30 nM; at MMP3, 18.4 nM.
With `CC(=O)Oc1ccccc1C(=O)O` [aspirin], on neuraminidase 1, the “reduction in Neu-1 activity” value is listed as “substantial reduction”. Also, the “inhibition of mammalian neuraminidase 1 by aspirin together with OP” value in [8] is “potentiates the ability of OP to inhibit mammalian neuraminidase 1”.
In the case of `CC(C)CCC[C@@H](C)[C@H]1CC[C@H]2[C@@H]3CC=C4C[C@@H](O)CC[C@]4(C)[C@H]3CC[C@]12C` [cholesterol], the “induction of Neu1 activity” value with Neu1 is on record as “induce Neu1 activity”.
Take `COC(=O)[C@H](c1ccccc1Cl)N1CCc2sccc2C1` [clopidogrel]: in data set [9], the “effect on OP's capacity to inhibit LPS induced sialidase activity” value is given as “no effect”. Further, at carboxylesterase, the “inhibition of the hydrolysis of OP by carboxylesterase” value was ≤ 90%.
For `CC(=O)N[C@H]1[C@H]([C@H](O)[C@H](O)CO)OC(C(=O)O)=C[C@@H]1N=C(N)N` [zanamivir, 4-guanidino-Neu5Ac2en], the “inhibition of Neu1 sialidase activity” value with Neu1 sialidase [10] is on record as “completely inhibited”. The “inhibition of human Neu3 sialidase” value on human Neu3 sialidase is “significantly inhibited”. At Neu1 sialidase [1], the “inhibition of the LPS-induced sialidase activity” value was “limited significant inhibition”. Also, the “inhibition of lipopolysaccharide” value on Neu1 sialidase [2] was “limited effect”. Further, the “inhibition of Neu3 sialidase activity” value in the data set with Neu3 sialidase is reported as “completely inhibited”.
“angiotensin 1-7 (DRVYIHP; Angiotensin 1-7; UniProt P01019 25-31, looked up)”: the “induction of sialidase activity” value in the data set on Neu1 sialidase [3] (FIG. 2A, agonist 20 μg/mL) was “induces Sialidase activity”. Moreover, in data set [6], the “expression of SEAP (reflective of NF-kB expression)” value is reported as “triggered increased expression of SEAP”.
Consider “angiotensin-1 (DRVYIHPFHL; Angiotensin-1; UniProt P01019 25-34, looked up) [GPCR agonist]”, for which the “induction of Neu1 activity” value with Neu1 is on record as “induce Neu1 activity”.
With “angiotensin-2: GPCR agonist, printed as 'angiotensin-1 and -2' (DRVYIHPF; Angiotensin-2; UniProt P01019 25-32, looked up)”, the “induction of Neu1 activity” value in the data set on Neu1 is given as “induce Neu1 activity”.
With lysophosphatidic acid, the “induction of Neu1 activity” value with Neu1 is “induce Neu1 activity”.
In the case of “neuropeptide FF (FLFQPQRF; ends and bridges not checked; UniProt O15130 69-76, looked up) [MAS agonist]”, the “expression of SEAP (reflective of NF-kB expression)” value in data set [6] is “triggered increased expression of SEAP”.
thrombin: the “induction of Neu1 activity” value in the data set on Neu1 is listed as “not”.

For orientation: IC50 means the concentration that gives 50% inhibition.
